The record followed here is publication PMC4403932 (Journal of Medicinal Chemistry, 2015).

What all share (assay type): binding
The target of one assay is T1, BRD9 (Homo sapiens, UniProt Q9H8M2).
T1 construct: made in house
T1 sequence (Q9H8M2 136-240 limits assumed): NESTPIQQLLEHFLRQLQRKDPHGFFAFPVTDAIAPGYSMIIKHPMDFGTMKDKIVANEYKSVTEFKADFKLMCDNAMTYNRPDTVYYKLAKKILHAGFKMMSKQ
Description: Protein stability (thermal) shift assay, BRD9. Conditions: for ΔTm at 10 µM: compound 10 μM, protein 2 μM, average of triplicate, read-out: ΔTm Shift, BRD9. The method, then:
(§1) Thermal melting experiments were carried out using an Mx3005p real time PCR machine (Stratagene). Proteins were buffered in 10 mM HEPES, pH 7.5, 500 mM NaCl and assayed in a 96-well plate at a final concentration of 2 μM in 20 μL volume. Compounds were added at a final concentration of 10 or 100 μM. SYPRO Orange (Molecular Probes) was added as a fluorescence probe at a dilution of 1 in 1000. Excitation and emission filters for the SYPRO-Orange dye were set to 465 and 590 nm, respectively. The temperature was raised with a step of 3 °C per minute from 25 to 96 °C, and fluorescence readings were taken at each interval. The temperature dependence of the fluorescence during the protein denaturation process was approximated by the equation [drawing 1] where ΔuG is the difference in unfolding free energy between the folded and unfolded state, R is the gas constant, and yF and yU are the fluorescence intensity of the probe in the presence of completely folded and unfolded protein, respectively.[65] The baselines of the denatured and native states were approximated by a linear fit. The observed temperature shifts, ΔTm^obs, were recorded as the difference between the transition midpoints of sample and reference wells containing protein without ligand in the same plate and determined by nonlinear least-squares fit. Temperature shifts (ΔTm^obs) for three independent measurements per proteins/compound are summarized in Supporting Information Table S1.

The next assay concerns the target T2, BRD4(1) (Homo sapiens, UniProt O60885).
T2 construct: made in house
The assay can be described thus: Protein stability (thermal) shift assay, BRD4(1). Conditions: compound 10 μM, protein 2 μM; average of triplicate; read-out: ΔTm Shift, BRD4(1). The method, then: as §1

The target in the next assay is T3, BRD2(1) (Homo sapiens, UniProt P25440).
T3 construct: Fragments were tested in a thermal shift assay against bromodomains of the BET subfamily; made in house
The assay can be described thus: Protein stability (thermal) shift assay, BRD2(1). The settings on record: compound 10 μM, protein 2 μM; average of triplicate. The method, then: as §1

A further assay addresses T4, PCAF (Homo sapiens, UniProt Q92831).
T4 construct: representative BRDs from other structural subfamilies (family I, PCAF); made in house
T4 sequence (Q92831 723-827 limits assumed): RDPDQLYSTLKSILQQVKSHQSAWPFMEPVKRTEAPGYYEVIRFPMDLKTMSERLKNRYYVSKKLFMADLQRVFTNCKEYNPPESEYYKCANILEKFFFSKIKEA
Description: Protein stability (thermal) shift assay, PCAF. The settings on record: compound 10 μM, protein 2 μM; average of triplicate. The procedure: as §1

A further assay concerns the target T5, CREBBP (Homo sapiens, UniProt Q92793).
T5 construct: small thermal shits (1.0–1.3 °C) for the bromodomain of CREBBP; made in house
The assay can be described thus: Protein stability (thermal) shift assay, CREBBP. Conditions: compound 10 μM, protein 2 μM; average of triplicate; read-out: ΔTm Shift, CREBBP. The procedure:
as §1

The target of another assay is T6, BRDT(2) (Homo sapiens, UniProt Q58F21).
T6 construct: made in house
Description: Protein stability (thermal) shift assay, BRDT(2). The settings on record: compound 10 μM, protein 2 μM; average of triplicate; read-out: ΔTm Shift, BRDT(2). The method, then: as §1

For a further assay, the target named is T7, PB1(5) (Homo sapiens, UniProt Q86U86).
T7 construct: made in house
Description: Protein stability (thermal) shift assay, PB1(5). Conditions: compound 10 μM, protein 2 μM; average of triplicate. The procedure: as §1

Another assay addresses T8, BRD2(2) (Homo sapiens, UniProt P25440).
T8 construct: made in house
Description: Protein stability (thermal) shift assay, BRD2(2). Conditions: compound 10 μM, protein 2 μM; average of triplicate. The procedure:
as §1

A further assay has as its target T9, BRD3(1) (Homo sapiens, UniProt Q15059).
T9 construct: Fragments were tested in a thermal shift assay against bromodomains of the BET subfamily; made in house
Description: Protein stability (thermal) shift assay, BRD3(1). The settings on record: compound 10 μM, protein 2 μM; average of triplicate. The procedure:
as §1

The next assay has as its target T10, BRD3(2) (Homo sapiens, UniProt Q15059).
T10 construct: made in house
The assay can be described thus: Protein stability (thermal) shift assay, BRD3(2). Conditions: compound 10 μM, protein 2 μM; average of triplicate. The procedure:
as §1

For another assay, the target named is T11, BRD4(2) (Homo sapiens, UniProt O60885).
T11 construct: made in house
The assay can be described thus: Protein stability (thermal) shift assay, BRD4(2). The settings on record: compound 10 μM, protein 2 μM; average of triplicate. The method, then: as §1

For another assay, the target named is T12, BRDT(1) (Homo sapiens, UniProt Q58F21).
T12 construct: made in house
The assay can be described thus: Protein stability (thermal) shift assay, BRDT(1). The settings on record: compound 10 μM, protein 2 μM; average of triplicate. The method, then:
as §1

Another assay deals with T13, BAZ2B (Homo sapiens, UniProt Q9UIF8).
T13 construct: representative BRDs from other structural subfamilies (family I, PCAF); family III, CREBBP; family IV, BRD9; family V, BAZ2B; made in house
T13 sequence (Q9UIF8 2060-2164 limits assumed): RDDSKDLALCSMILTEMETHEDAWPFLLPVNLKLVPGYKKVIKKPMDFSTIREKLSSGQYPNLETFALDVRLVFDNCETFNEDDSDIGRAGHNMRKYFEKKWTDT
The assay can be described thus: Protein stability (thermal) shift assay, BAZ2B. The settings on record: compound 10 μM, protein 2 μM; average of triplicate; read-out: ΔTm Shift, BAZ2BA. The method, then: as §1

T5 sequence (Q92793 1085-1192 limits assumed): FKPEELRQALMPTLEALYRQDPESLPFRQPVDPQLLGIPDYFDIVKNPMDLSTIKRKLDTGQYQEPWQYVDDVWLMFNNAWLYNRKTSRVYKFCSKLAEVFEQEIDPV
T7 sequence (Q86U86 653-763 limits assumed): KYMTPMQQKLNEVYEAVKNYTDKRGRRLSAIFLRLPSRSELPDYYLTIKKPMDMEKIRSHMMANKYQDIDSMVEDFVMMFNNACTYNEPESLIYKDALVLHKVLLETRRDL
T3 sequence (P25440 74-180 limits assumed): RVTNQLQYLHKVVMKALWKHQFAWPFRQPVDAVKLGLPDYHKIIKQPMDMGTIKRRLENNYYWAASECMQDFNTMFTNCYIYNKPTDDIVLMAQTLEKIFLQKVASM
T8 sequence (P25440 344-453 limits assumed): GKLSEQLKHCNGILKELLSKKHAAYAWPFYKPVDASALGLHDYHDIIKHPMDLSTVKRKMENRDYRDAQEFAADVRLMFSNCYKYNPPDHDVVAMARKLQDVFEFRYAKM
T10 sequence (Q15059 306-415 limits assumed): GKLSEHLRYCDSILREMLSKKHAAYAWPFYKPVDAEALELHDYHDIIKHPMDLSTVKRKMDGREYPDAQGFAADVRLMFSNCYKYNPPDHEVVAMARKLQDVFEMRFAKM
T9 sequence (Q15059 34-140 limits assumed): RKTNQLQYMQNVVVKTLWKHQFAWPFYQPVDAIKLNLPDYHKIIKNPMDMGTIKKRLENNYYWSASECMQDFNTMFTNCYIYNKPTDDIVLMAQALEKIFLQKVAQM

In the case of `Nc1nc(-c2ccc(OCc3ccccc3)c(Cl)c2)c2nc[nH]c2n1` [Compound 4a, 2-Amino-6-(4-benzyloxy-3-chlorophenyl)-9H-purine], the ΔTm at 10 µM was -1.7 °C on BRD9; -0.15 °C at BRD4(1); -0.5 °C at BRD2(1); -0.2 °C on PCAF; 0.9 °C at CREBBP; 0.224 °C on BRDT(2). Further, the ΔTm at 10 µM on PB1(5) was 0.536 °C; on BRD2(2) it was -0.5 °C; on BRD3(1), -0.252 °C; on BRD3(2) it was -0.092 °C; at BRD4(2), -2.6 °C; on BRDT(1), -0.0553 °C. Besides, the ΔTm at 10 µM at BAZ2B is -0.367 °C.
With `COc1cc(COc2ccc(-c3nc(N)nc4[nH]cnc34)cc2Cl)cc(OC)c1` [Compound 4b, 2-Amino-6-(3-chloro-4-(3′,5′-dimethoxybenzyloxy)phenyl)-9H-purine], the ΔTm at 10 µM at BRD9 was -2 °C; at BRD4(1) it was 0.54 °C; at BRD2(1), -0.113 °C; on PCAF, 1.6 °C; on CREBBP it was -0.04 °C; on BRDT(2), 0.7 °C. The ΔTm at 10 µM at PB1(5) is 0.7 °C; on BRD2(2), 0.159 °C; on BRD3(1) it was 0.445 °C; at BRD3(2), -0.379 °C; at BRD4(2), -2.9 °C; on BRDT(1), 0.658 °C. Also, the ΔTm at 10 µM at BAZ2B stood at 2.3 °C.
With `Nc1nc(-c2ccc3c(c2)OCCO3)c2nc[nH]c2n1` [Compound 4c, 2-Amino-6-(2,3-dihydrobenzo[b][1,4]dioxin-6-yl)-9H-purine], the ΔTm at 10 µM at BRD9 was 0.8 °C; on BRD4(1), 0.4 °C; at BRD2(1) it was -0.3 °C; on PCAF, -1.2 °C; on CREBBP, -1.5 °C; at BRDT(2), -0.166 °C. Besides, the ΔTm at 10 µM is -1.6 °C at PB1(5); -0.0273 °C on BRD2(2); 0.0747 °C on BRD3(1); 0.9 °C at BRD3(2); -1.3 °C on BRD4(2); -0.125 °C on BRDT(1). Besides, the ΔTm at 10 µM at BAZ2B is -0.9 °C.
On to `CCCCOc1cc(Br)cc(-c2nc(N)nc3[nH]cnc23)c1` [Compound 5a, 2-Amino-6-(3-bromo-5-butoxyphenyl)-9H-purine], for which the ΔTm at 10 µM on BRD9 stood at 1.1 °C; at BRD4(1) it was 1.6 °C; on BRD2(1) it was 0.7 °C; at PCAF, 1.3 °C; on CREBBP, 1.7 °C; at BRDT(2), 1.8 °C. Further, the ΔTm at 10 µM was determined as 1.1 °C at PB1(5); 1.7 °C at BRD2(2); 0.9 °C on BRD3(1); 1.5 °C at BRD3(2); 1.3 °C at BRD4(2); 1 °C on BRDT(1). The ΔTm at 10 µM at BAZ2B was determined as 1.1 °C.
As to `COc1cccc(OC)c1-c1nc(N)nc2[nH]cnc12` [Compound 6a, 2-Amino-6-(2,6-dimethoxyphenyl)-9H-purine], the ΔTm at 10 µM at BRD9 was -0.1 °C; at BRD4(1) it was 0.7 °C; on BRD2(1) it was 0.167 °C; at PCAF it was -0.4 °C; at CREBBP, 0.34 °C; on BRDT(2), 0.364 °C. The ΔTm at 10 µM at PB1(5) is 0.4 °C; on BRD2(2), 0.4 °C; on BRD3(1) it was 0.341 °C; on BRD3(2), 1.3 °C; on BRD4(2) it was -1.3 °C; at BRDT(1), -0.122 °C. Besides, the ΔTm at 10 µM at BAZ2B came out at 0.0167 °C.
Regarding `COc1cccc(OC(C)C)c1-c1nc(N)nc2[nH]cnc12` [Compound 6b, 2-Amino-6-(2-isopropoxy-6-methoxyphenyl)-9H-purine], the ΔTm at 10 µM at BRD9 is -0.162 °C; at BRD4(1), 0.6 °C; at BRD2(1) it was -0.459 °C; on PCAF it was -0.261 °C; on CREBBP, -0.1 °C; on BRDT(2), 0.447 °C. Moreover, the ΔTm at 10 µM on PB1(5) was 0.216 °C; at BRD2(2), -0.3 °C; on BRD3(1), 0.651 °C; on BRD3(2), 0.6 °C; on BRD4(2) it was -0.845 °C; at BRDT(1) it was 0.165 °C. For the same compound, the ΔTm at 10 µM on BAZ2B was -0.3 °C.
On to `COc1cccc(OCC(C)C)c1-c1nc(N)nc2[nH]cnc12` [Compound 6c, 2-Amino-6-(2-isobutoxy-6-methoxyphenyl)-9H-purine], for which the ΔTm at 10 µM was -0.0523 °C at BRD9; 1 °C at BRD4(1); 0.187 °C at BRD2(1); -0.121 °C on PCAF; -0.4 °C on CREBBP; 0.8 °C on BRDT(2). The ΔTm at 10 µM at PB1(5) is -0.324 °C; on BRD2(2) it was 0.6 °C; at BRD3(1), 1.2 °C; at BRD3(2) it was 1.1 °C; on BRD4(2) it was 0.4 °C; on BRDT(1), -0.0153 °C. Further, the ΔTm at 10 µM on BAZ2B was -0.147 °C.
Turning to `CCOc1ccc(Br)cc1-c1nc(N)nc2[nH]cnc12` [Compound 7e, 2-Amino-6-(5-bromo-2-ethoxyphenyl)-9H-purine], the ΔTm at 10 µM on BRD9 was 0.316 °C; at BRD4(1), 1.9 °C; on BRD2(1), 0.4 °C; at PCAF, -1.1 °C; on CREBBP, 0.5 °C; on BRDT(2), 1.5 °C. Further, the ΔTm at 10 µM at PB1(5) was 0.3 °C; at BRD2(2) it was 1.7 °C; on BRD3(1), 1.6 °C; at BRD3(2), 2.7 °C; at BRD4(2), -1.5 °C; at BRDT(1), 0.275 °C. The ΔTm at 10 µM at BAZ2B was -0.5 °C. For the same compound, on BRD9 (thermal shift, 10 μM compound), the “binding to BRD9 in the ΔTm assay (in words)” value is listed as “Affinity for BRD9 was lost”.
